Source: patent US20250074913A1, “PYRAZOLE DERIVATIVES AS STING AGONISTS” (Hoffmann-La Roche Inc., priority 2022, published 2025)
Where two headings read alike, the source gives them in different places.

Key:
[1] = system: human PBMC; test: hPBMC cytokine release assay (Luminex, IFN-β); format: cell-based; settings: read-out: Agonist_hPBMC_IFN-β_EC50
Description: This is the cytokines concentration detection with Luminex assay for human PBMC supernatant. Human peripheral blood mononuclear cells (PBMC) are treated by compounds with appropriate time. Multiple cytokines are released in the supernatant in response to the compound stimulation. Luminex assay can measure the cytokines concentration in supernatant and the compounds activity on human PBMC can be evaluated.
Frozen PBMC was thawed and cultured in PRMI1640 (GIBCO 11875-093) whole medium with […] Heat inactivated-FBS (HI—FBS), 1% NEAA, […] in CO2 incubator overnight. Cells were centrifuged at 400×g for 5 minutes at 4° C. and the pellet was re-suspended with complete RPMI1640 medium to concentration of 1×10^6 cells/ml in cell culture flask T75 (Thermo Fisher Scientific). Compounds were serially diluted with DMSO and distributed to 96-well flat bottom cell plate (Corning 3599) with Echo555. 90 μL/well PBMC cells were seeded into the plates with Multidrop (Thermo Fisher Scientific). After 24 hours of incubation in CO2 incubator, cells were centrifuged at 400×g for 5 minutes at room temperature, 80 μL supernatant each well was collected for cytokines release test with luminex assay of Human custom ProcartaPlex 5-plex kit (Thermo Fisher Scientific PPX-05). 10 μL supernatant or standards were added to a mixture of color-coded beads, 5 μL Biotinylated detection antibodies specific to the analytes of interest were added and formed an antibody-antigen sandwich. 10 μL Phycoerythrin (PE)-conjugated streptavidin is added to the plate and then read signal of each well on the Luminex 200™. The raw data was analyzed by Millipore Analyst Software and cytokine concentrations were generated accordingly. The EC50 of corresponding cytokine such as interferon-β (IFN-β) was calculated by the 4-parameter sigmoidal concentration response model fitting.

[2] = system: interferon regulatory factor (IRF) pathway in THP1-Dual™ cells; test: THP1-Dual reporter gene assay (Agonist_THP1_EC50); format: cell-based; settings: Homo sapiens, 20-24 hrs compound treatment, Lucia luciferase (IRF) readout
Text: This is the cellular reporter assay to evaluate compounds' agonism to interferon regulatory factor (IRF) pathway in THP1-Dual™ cells (InvivoGen, cat number thpd-nfis). THP1-Dual™ cells were derived from the human THP-1 monocyte cell line by stable integration lucia luciferase gene, a new secreted luciferase reporter gene, under the control of an ISG54 (interferon-stimulated gene) minimal promoter in conjunction with five interferon (IFN)-stimulated response elements. As a result, THP1-Dual™ cells allow the study of the IRF pathway, by assessing the activity of Lucia luciferase. Lucia luciferase protein is readily measurable in the cell culture supernatant when using QUANTI-Luc™ (InvivoGen, cat: rep-qlcg-500).
After 20-24 hrs compound treatment in THP1-Dual cells, the compounds' agonism to IRF pathway and cell toxicity were tested by measuring luminescence and OD 450 on an Envision plate reader.
On the day of experiment, 30 μL of test medium (RPMI 1640, 2 mM L-glutamine, 25 mM HEPES, […] heat-inactivated fetal bovine serum) was dispensed in a white 384-well plate (Grenier, cat: 781098) containing the serially diluted compounds (final 1% DMSO) transferred by the Echo550 machine. Then 30 μL of cell suspension (˜33,000 cells, 1.1×10^6 cells/mL) per well was added immediately by thermo multidrop combi dispenser for incubation 20-24 h at 37° C., […]. At the end of the incubation, 10 μL of cellular supernatant was transferred to proxiplate 384-plus plate for IRF detection, and then 10 μL of QUANTI-Luc™ Gold solution was added to the plate that proceeded with the measurement immediately. To detect cell viability, 30 μL of the CCK-8 working solution (Dojindo Molecular Technologies, cat: CK04-20) was added to the cell plate, which was Incubated for 2 hrs in the incubator to measure the absorbance at 450 nm using Envision.

[3] = 24 hours incubation, IFN-β in supernatant

EC50 [2] | Structure (SMILES) | EC50 [1, 3] | EC50 ([1]; prior art compounds (Table 4), IFN-β)
12 nM | Cc1nn(CC=C(F)F)c(-c2n[nH]c(-c3nc(C(N)=O)cc4c3cnn4C)n2)c1O [Example 34, 4-[3-[2-(3,3-difluoroallyl)-4-hydroxy-5-methyl-pyrazol-3-yl]-1H-1,2,4-triazol-5-yl]-1-methyl-pyrazolo[4,3-c]pyridine-6-carboxamide] | 11 nM | 
16 nM | CCCCn1nc(C)c(O)c1-c1nc(-c2nc(C(N)=O)n3cc(C)ncc23)co1 [Example 86, 1-[2-(2-butyl-4-hydroxy-5-methyl-pyrazol-3-yl)oxazol-4-yl]-6-methyl-imidazo[1,5-a]pyrazine-3-carboxamide] | 30 nM | 
15 nM | CCCn1nc(C)c(O)c1-c1nc(-c2cc(C(N)=O)n3cc(C)ncc23)co1 [Example 94, 8-[2-(4-hydroxy-5-methyl-2-propyl-pyrazol-3-yl)oxazol-4-yl]-3-methyl-pyrrolo[1,2-a]pyrazine-6-carboxamide] | 6 nM | 
13 nM | Cc1cc2c(C(N)=O)nn(-c3nc(-c4c(O)c(C)nn4CCc4cccc(F)c4)n[nH]3)c2cn1 [Example 55, 1-(3-(1-(3-fluorophenethyl)-4-hydroxy-3-methyl-1H-pyrazol-5-yl)-1H-1,2,4-triazol-5-yl)-5-methyl-1H-pyrazolo[3,4-c]pyridine-3-carboxamide] | 32 nM | 
12 nM | Cc1cn2c(C(N)=O)nc(-c3nc(-c4c(O)c(C)nn4CCc4ccccc4)n[nH]3)c2cn1 [Example 53, 1-[3-[4-hydroxy-5-methyl-2-(2-phenylethyl)pyrazol-3-yl]-1H-1,2,4-triazol-5-yl]-6-methyl-imidazo[1,5-a]pyrazine-3-carboxamide] | 26 nM | 
13 nM | COCc1ccc(CCn2nc(C)c(O)c2-c2n[nH]c(-n3nc(C(N)=O)c4cc(C)ncc43)n2)cc1 [Example 64, 1-[3-[4-hydroxy-2-[2-[4-(methoxymethyl)phenyl]ethyl]-5-methyl-pyrazol-3-yl]-11H-1,2,4-triazol-5-yl]-5-methyl-pyrazolo[3,4-c]pyridine-3-carboxamide] | 35 nM | 
22 nM | CCCn1nc(C)c(O)c1-c1nc(-n2nc(C(N)=O)c3cc(C)ncc32)c(CO)o1 [Example 83, 1-[5-(hydroxymethyl)-2-(4-hydroxy-5-methyl-2-propyl-pyrazol-3-yl)oxazol-4-yl]-5-methyl-pyrazolo[3,4-c]pyridine-3-carboxamide] | 23 nM | 
6 nM | CCCn1nc(C)c(O)c1-c1nc(-c2c(F)c(C(N)=O)n3cc(C)ncc23)co1 [Example 93, 7-fluoro-8-[2-(4-hydroxy-5-methyl-2-propyl-pyrazol-3-yl)oxazol-4-yl]-3-methyl-pyrrolo[1,2-a]pyrazine-6-carboxamide] | 9 nM | 
10 nM | CCCCn1nc(C)c(O)c1-c1nc(-n2nc(C(N)=O)c3cc(C)ncc32)co1 [Example 59, 1-(2-(1-butyl-4-hydroxy-3-methyl-1H-pyrazol-5-yl)oxazol-4-yl)-5-methyl-1H-pyrazolo[3,4-c]pyridine-3-carboxamide] | 7 nM | 
17 nM | CCCCn1nc(C)c(O)c1-c1n[nH]c(-c2nc(C(N)=O)n3cc(C)ncc23)n1 [Example 77, 1-[3-(2-butyl-4-hydroxy-5-methyl-pyrazol-3-yl)-1H-1,2,4-triazol-5-yl]-6-methyl-imidazo[1,5-a]pyrazine-3-carboxamide] | 20 nM | 
9 nM | CC#CCCn1nc(C)c(O)c1-c1n[nH]c(-c2nc(C(N)=O)cc3c2cnn3C)n1 [Example 45, 4-[3-(4-hydroxy-5-methyl-2-pent-3-ynyl-pyrazol-3-yl)-1H-1,2,4-triazol-5-yl]-1-methyl-pyrazolo[4,3-c]pyridine-6-carboxamide] | 9 nM | 
16 nM | CCCn1nc(C)c(O)c1-c1n[nH]c(-c2cc(C(N)=O)n3cc(C)ncc23)n1 [Example 91, 8-[3-(4-hydroxy-5-methyl-2-propyl-pyrazol-3-yl)-1H-1,2,4-triazol-5-yl]-3-methyl-pyrrolo[1,2-a]pyrazine-6-carboxamide] | 38 nM | 
34 nM | CCCn1nc(C)c(O)c1-c1nc(-n2nc(C(N)=O)c3cc(C)ncc32)n(C)n1 [Example 84, 1-[5-(4-hydroxy-5-methyl-2-propyl-pyrazol-3-yl)-2-methyl-1,2,4-triazol-3-yl]-5-methyl-pyrazolo[3,4-c]pyridine-3-carboxamide] | 18 nM | 
15 nM | CCCCn1nc(C)c(O)c1-c1n[nH]c(-c2c(F)c(C(N)=O)n3cc(C)ncc23)n1 [Example 76, 8-[3-(2-butyl-4-hydroxy-5-methyl-pyrazol-3-yl)-1H-1,2,4-triazol-5-yl]-7-fluoro-3-methyl-pyrrolo[1,2-a]pyrazine-6-carboxamide] | 14 nM | 
6 nM | CCCn1nc(C)c(O)c1-c1nc(-n2nc(C(N)=O)c3cc(C)ncc32)co1 [Example 58, 1-(2-(4-hydroxy-3-methyl-1-propyl-1H-pyrazol-5-yl)oxazol-4-yl)-5-methyl-1H-pyrazolo[3,4-c]pyridine-3-carboxamide] | 17 nM | 
18 nM | Cc1cc2c(C(N)=O)nn(-c3coc(-c4c(O)c(C)nn4CCC(F)F)n3)c2cn1 [Example 67, 1-(2-(1-(3,3-difluoropropyl)-4-hydroxy-3-methyl-1H-pyrazol-5-yl)oxazol-4-yl)-5-methyl-1H-pyrazolo[3,4-c]pyridine-3-carboxamide] | 24 nM | 
8 nM | Cc1nn(CCc2ccccc2)c(-c2n[nH]c(-c3nc(C(N)=O)cc4c3cnn4C)n2)c1O [Example 82, 4-(5-(4-hydroxy-3-methyl-1-phenethyl-1H-pyrazol-5-yl)-2H-1,2,4-triazol-3-yl)-1-methyl-1H-pyrazolo[4,3-c]pyridine-6-carboxamide] | 29 nM | 
20 nM | CCCn1nc(C)c(O)c1-c1n[nH]c(-c2nc(C(N)=O)n3cc(C)ncc23)n1 [Example 80, 1-[3-(4-hydroxy-5-methyl-2-propyl-pyrazol-3-yl)-1H-1,2,4-triazol-5-yl]-6-methyl-imidazo[1,5-a]pyrazine-3-carboxamide] | 42 nM | 
79 nM | Cc1nn(CCn2nccn2)c(-c2n[nH]c(-c3nc(C(N)=O)cc4c3cnn4C)n2)c1O [Example 35, 4-[3-[4-hydroxy-5-methyl-2-[2-(triazol-2-yl)ethyl]pyrazol-3-yl]-1H-1,2,4-triazol-5-yl]-1-methyl-pyrazolo[4,3-c]pyridine-6-carboxamide] |  | 
13 nM | Cc1cc2c(C(N)=O)nn(-c3nc(-c4c(O)c(C)nn4CCc4ccc(F)cc4)n[nH]3)c2cn1 [Example 52, 1-[3-[2-[2-(4-fluorophenyl)ethyl]-4-hydroxy-5-methyl-pyrazol-3-yl]-1H-1,2,4-triazol-5-yl]-5-methyl-pyrazolo[3,4-c]pyridine-3-carboxamide] | 18 nM | 
25 nM | COc1ccc(CCn2nc(C)c(O)c2-c2n[nH]c(-n3nc(C(N)=O)c4cc(C)ncc43)n2)cc1 [Example 50, 1-[3-[4-hydroxy-2-[2-(4-methoxyphenyl)ethyl]-5-methyl-pyrazol-3-yl]-1H-1,2,4-triazol-5-yl]-5-methyl-pyrazolo[3,4-c]pyridine-3-carboxamide] |  | 
50 nM | Cc1nn(CCC#N)c(-c2n[nH]c(-c3nc(C(N)=O)cc4c3cnn4C)n2)c1O [Example 25, 4-[3-[2-(2-cyanoethyl)-4-hydroxy-5-methyl-pyrazol-3-yl]-1H-1,2,4-triazol-5-yl]-1-methyl-pyrazolo[4,3-c]pyridine-6-carboxamide] |  | 
 | CCn1nc(C)c(O)c1-c1nc(-c2nc(C(N)=O)cc3c2cnn3C)co1 [AE01, reference compound] |  | 40 nM
